Here are results for 24 molecules from ChEMBL document CHEMBL1909046, “DrugMatrix in vitro pharmacology data”.

Assay [1] has as its target 5-hydroxytryptamine receptor 4 (Cavia porcellus, UniProt O70528). Format: cell membranes, Dunkin-Hartley, Striatum, Membrane. Further: in other assays of this panel Not Active means under 50% inhibition at 10 µM.
Assay [2] concerns the target T1, Amine oxidase [flavin-containing] A (Homo sapiens, UniProt P21397).
T1 sequence (P21397 whole entry): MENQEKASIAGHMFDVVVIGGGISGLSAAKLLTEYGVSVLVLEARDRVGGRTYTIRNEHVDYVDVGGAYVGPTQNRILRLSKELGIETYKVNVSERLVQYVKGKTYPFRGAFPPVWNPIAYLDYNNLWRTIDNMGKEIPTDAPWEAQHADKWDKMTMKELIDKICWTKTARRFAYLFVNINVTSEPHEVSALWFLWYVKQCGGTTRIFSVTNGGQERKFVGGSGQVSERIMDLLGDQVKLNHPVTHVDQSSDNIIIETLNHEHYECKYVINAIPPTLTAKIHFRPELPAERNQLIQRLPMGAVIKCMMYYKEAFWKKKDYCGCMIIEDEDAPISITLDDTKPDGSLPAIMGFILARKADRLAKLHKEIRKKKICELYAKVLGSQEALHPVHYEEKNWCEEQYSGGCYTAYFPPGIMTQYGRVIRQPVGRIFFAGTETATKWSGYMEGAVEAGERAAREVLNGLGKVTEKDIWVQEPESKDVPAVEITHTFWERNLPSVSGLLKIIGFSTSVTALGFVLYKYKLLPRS
Description: DRUGMATRIX: Monoamine Oxidase MAO-A enzyme inhibition (substrate: Kynuramine). The conditions noted are these: bti-tn-5b1-4; Not Active = under 50% inhibition at 10 µM. The arrangement: species or system BTI-TN-5B1-4.

Assay [3] in a line: DRUGMATRIX: Tumor Necrosis Factor (TNF), Non-Selective radioligand binding (ligand: [125I] TNF-alpha). It counts as cell membranes, Membrane. The conditions noted are these: u-937; Not Active = under 50% inhibition at 10 µM.
Assay [4] in a line: DRUGMATRIX: Imidazoline I2, Central radioligand binding (ligand: [3H] Idazoxan). It counts as cell membranes, Rattus norvegicus, Wistar, Cerebral cortex, Membrane. The conditions noted are these: Not Active = under 50% inhibition at 10 µM.

SMILES strings stand for the structures.

Chain of 5-hydroxytryptamine receptor 4 (O70528 whole entry): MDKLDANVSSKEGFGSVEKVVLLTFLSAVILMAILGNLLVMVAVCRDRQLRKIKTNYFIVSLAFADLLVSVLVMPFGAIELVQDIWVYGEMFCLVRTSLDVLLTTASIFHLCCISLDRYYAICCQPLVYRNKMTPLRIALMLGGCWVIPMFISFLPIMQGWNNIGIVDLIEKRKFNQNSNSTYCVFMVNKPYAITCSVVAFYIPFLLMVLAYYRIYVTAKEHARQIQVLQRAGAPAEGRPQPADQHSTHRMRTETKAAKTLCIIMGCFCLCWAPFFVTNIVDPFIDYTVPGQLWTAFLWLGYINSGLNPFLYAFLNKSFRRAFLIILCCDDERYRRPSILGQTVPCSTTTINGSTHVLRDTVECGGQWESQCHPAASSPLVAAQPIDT

One may read the IC50 as the concentration at which inhibition is half-maximal. For orientation: Ki means a dissociation constant, usually derived from enzyme kinetics or from competition with a known ligand. On to `Cc1ccccc1N1CCN(CCc2nnc3n2CCCC3)CC1` [DAPIPRAZOLE], for which the half-maximal inhibitory concentration (IC50) entry in assay [1], in assay [2], in assay [3] and in assay [4] was “Not Active” throughout. The Ki entry in assay [3] and in assay [4] was “Not Active” each time.
For the molecule `CN1CCC[C@H]1c1cccnc1` [NICOTINE], the IC50 result in assay [1], in assay [2], in assay [3] and in assay [4] was “Not Active” in each case. The Ki entry in assay [3] and in assay [4] was “Not Active” in each case.
`Oc1c(Cl)cc(Cl)cc1Sc1cc(Cl)cc(Cl)c1O` [BITHIONOL]: the IC50 entry in assay [1], in assay [2], in assay [3] and in assay [4] was “Not Active” in each case. In addition, the inhibition constant (Ki) result in assay [3] and in assay [4] was “Not Active” each time.
Consider `COC(=O)[C@H](c1ccccc1Cl)N1CCc2sccc2C1` [CLOPIDOGREL], for which the IC50 result in assay [1], in assay [2], in assay [3] and in assay [4] was “Not Active” each time. The Ki entry in assay [3] and in assay [4] was “Not Active” throughout.
As for `CCCSc1ccc2nc(NC(=O)OC)[nH]c2c1` [ALBENDAZOLE], the IC50 entry in assay [1], in assay [2], in assay [3] and in assay [4] was “Not Active” each time. The Ki entry in assay [3] and in assay [4] was “Not Active” throughout.
`O=c1[nH]cc(F)c(=O)[nH]1` [FLUOROURACIL]: the IC50 entry in assay [1], in assay [2], in assay [3] and in assay [4] was “Not Active” each time. The Ki result in assay [3] and in assay [4] was “Not Active” in each case.
As for `NCC1(CC(=O)O)CCCCC1` [GABAPENTIN], the IC50 entry in assay [1], in assay [2], in assay [3] and in assay [4] was “Not Active” each time. Also, the Ki result in assay [3] and in assay [4] was “Not Active” in each case.
Regarding `CN1C(C(=O)Nc2ccccn2)=C(O)c2ccccc2S1(=O)=O` [PIROXICAM], the IC50 entry in assay [1], in assay [2], in assay [3] and in assay [4] was “Not Active” each time. Further, the Ki result in assay [3] and in assay [4] was “Not Active” throughout.
As for `C=C1CC[C@H](O)C/C1=C/C=C1\CCC[C@]2(C)[C@@H]([C@H](C)/C=C/[C@H](C)C(C)C)CC[C@@H]12` [ERGOCALCIFEROL], the IC50 result in assay [1], in assay [2], in assay [3] and in assay [4] was “Not Active” each time. Also, the inhibition constant (Ki) result in assay [3] and in assay [4] was “Not Active” in each case.
Turning to `Cn1cnc([N+](=O)[O-])c1Sc1ncnc2nc[nH]c12` [AZATHIOPRINE], the IC50 entry in assay [1], in assay [2], in assay [3] and in assay [4] was “Not Active” in each case. For the same molecule, the Ki result in assay [3] and in assay [4] was “Not Active” in each case.
With `CC(/C=C1\SC(=S)N(CC(=O)O)C1=O)=C\c1ccccc1`, the IC50 result in assay [1], in assay [2], in assay [3] and in assay [4] was “Not Active” in each case. The inhibition constant Ki entry in assay [3] and in assay [4] was “Not Active” each time.
For `N=C(N)NCCCCNC(=N)N.O=S(=O)(O)O` [ARCAINE SULFATE], the IC50 entry in assay [1], in assay [2], in assay [3] and in assay [4] was “Not Active” in each case. The Ki entry in assay [3] and in assay [4] was “Not Active” in each case.
Take `CC1(C)[C@@H](O[C@H]2O[C@H](C(=O)O)[C@@H](O)[C@H](O)[C@H]2O[C@@H]2O[C@H](C(=O)O)[C@@H](O)[C@H](O)[C@H]2O)CC[C@]2(C)[C@H]3C(=O)C=C4[C@@H]5C[C@@](C)(C(=O)O)CC[C@]5(C)CC[C@@]4(C)[C@]3(C)CC[C@@H]12` [GLYCYRRHIZIN]: the IC50 entry in assay [1], in assay [2], in assay [3] and in assay [4] was “Not Active” in each case. The inhibition constant Ki result in assay [3] and in assay [4] was “Not Active” in each case.
As for `Cc1[nH]cnc1CN1CCc2c(c3ccccc3n2C)C1=O` [ALOSETRON], the IC50 result in assay [1], in assay [2], in assay [3] and in assay [4] was “Not Active” throughout. The Ki entry in assay [3] and in assay [4] was “Not Active” each time.
For `CN1C[C@H](C(=O)N[C@]2(C)O[C@@]3(O)[C@@H]4CCCN4C(=O)[C@H](Cc4ccccc4)N3C2=O)C=C2c3cccc4[nH]cc(c34)C[C@H]21` [ERGOTAMINE], the IC50 was 1580 nM in assay [1] (read-out: IC50), “Not Active” in assay [2], “Not Active” in assay [3] and 3.65 nM in assay [4] (read-out: IC50). Besides, the Ki in assay [1] (read-out: Ki) was 264 nM; in assay [3], “Not Active”; in assay [4] (read-out: Ki), 2.43 nM.
With `COc1c(N2CCNC(C)C2)c(F)cc2c(=O)c(C(=O)O)cn(C3CC3)c12` (stereo not given) [GATIFLOXACIN], the IC50 result in assay [1], in assay [2], in assay [3] and in assay [4] was “Not Active” in each case. For the same molecule, the Ki entry in assay [3] and in assay [4] was “Not Active” each time.
For the molecule `CC(=O)CCCCn1c(=O)c2c(ncn2C)n(C)c1=O` [PENTOXIFYLLINE], the IC50 entry in assay [1], in assay [2], in assay [3] and in assay [4] was “Not Active” each time. Moreover, the Ki entry in assay [3] and in assay [4] was “Not Active” each time.
Take `O=C1CN=C(c2ccccc2)c2cc([N+](=O)[O-])ccc2N1` [NITRAZEPAM]: the IC50 result in assay [1], in assay [2], in assay [3] and in assay [4] was “Not Active” each time. Further, the Ki result in assay [3] and in assay [4] was “Not Active” throughout.
For the molecule `CCC1(c2ccccc2)C(=O)NCNC1=O` [PRIMIDONE], the IC50 entry in assay [1], in assay [2], in assay [3] and in assay [4] was “Not Active” each time. The Ki entry in assay [3] and in assay [4] was “Not Active” each time.
As for `CC=CC(=O)N(CC)c1ccccc1C`, the IC50 entry in assay [1], in assay [2], in assay [3] and in assay [4] was “Not Active” throughout. In addition, the Ki result in assay [3] and in assay [4] was “Not Active” each time.
For the molecule `O=C1NC(=O)C(c2ccccc2)(c2ccccc2)N1` [PHENYTOIN], the 50% inhibitory concentration (IC50) entry in assay [1], in assay [2], in assay [3] and in assay [4] was “Not Active” each time. For the same molecule, the Ki result in assay [3] and in assay [4] was “Not Active” each time.
With `CC1(C)S[C@@H]2[C@H](NC(=O)[C@H](NC(=O)N3CCNC3=O)c3ccccc3)C(=O)N2[C@H]1C(=O)O` [AZLOCILLIN], the IC50 result in assay [1], in assay [2], in assay [3] and in assay [4] was “Not Active” throughout. The inhibition constant (Ki) result in assay [3] and in assay [4] was “Not Active” throughout.
As to `CCOC(=O)OC(C)OC1=C(C(=O)Nc2ccccn2)N(C)S(=O)(=O)c2ccccc21` (stereo not given) [AMPIROXICAM], the IC50 entry in assay [1], in assay [2], in assay [3] and in assay [4] was “Not Active” each time. Moreover, the inhibition constant (Ki) result in assay [3] and in assay [4] was “Not Active” each time.
Turning to `CC[N+](CC)(CC)CCOc1cccc(OCC[N+](CC)(CC)CC)c1OCC[N+](CC)(CC)CC.[I-].[I-].[I-]` [GALLAMINE TRIETHIODIDE], the IC50 entry in assay [1], in assay [2], in assay [3] and in assay [4] was “Not Active” throughout. Moreover, the Ki entry in assay [3] and in assay [4] was “Not Active” throughout.
